Values joined by “and” are separate entries in the source; they are usually repeats but may differ in a detail not shown here. Identical values can stand only once. Like-named read-outs stand apart in the source and are kept apart here.
Columns and labels:
[1] = Mouse pharmacokinetics, IV and oral administration; assay type: in vivo; settings: male C57BL/6 mice; for concentration at 0.017 h / concentration at 0.033 h / concentration at 0.083 h / concentration at 0.25 h / concentration at 0.5 h / concentration at 1 h / concentration at 2 h / concentration at 4 h / concentration at 7.5 h / concentration at 24 h: male, C57BL/6, mouse
Procedure: PF670462 (2HCl.0.4 mol. eq. isopropanol) and ZH3-138 (unionised) were administered to male C57BL/6 mice by IV (3 mg/kg) or orally (10 mg/kg). IV administration was achieved by bolus injection into the tail vein of mice using 1 mL syringe with 25G×1″ needle at a volume of 3 mL/kg. Oral administration was achieved by gavage needle at a volume of 3 mL/kg.
Intravenous (IV) and oral formulations were prepared using the same method. On the day of dosing, each of the solid compound was dissolved in DMSO to which an aqueous solution containing 10% Captisol was added. Hydrochloric acid (1 M) was used to modify pH for the formulation of ZH3-138 with the purpose of solubilising the compound (see Section B for the final pH of each formulation). The formulations of each compound were thoroughly vortexed, producing colourless solutions for all three compounds.
The systemic exposure of PF670462 and ZH3-138 was studied in non-fasted male C57BL/6 mice weighing 19.8-26.8 g. Mice had access to food and water ad libitum throughout the pre- and post-dose sampling period.
Compounds were dosed to mice by bolus injection into the lateral tail vein (3 mL/kg) for IV administration and by gavage (3 mL/kg) for oral administration. Following IV and oral administration, blood samples were collected up to 24 h (n=3 mice per time point) with a maximum of three samples from each mouse. Samples were collected via submandibular bleed (approximately 120 μL; conscious sampling). No urine samples were collected as mice were housed in bedded cages.
Blood was collected into polypropylene Eppendorf tubes containing heparin as anticoagulant and stabilisation cocktail (containing Complete® (a protease inhibitor cocktail) and potassium fluoride) to minimise the potential for ex vivo compound degradation in blood/plasma samples.
Once collected, blood samples were centrifuged immediately, supernatant plasma was removed, and stored at −80° C. until analysis by LC-MS.
Plasma samples were quantified against calibration standards prepared by spiking blank mouse plasma (50 μL) with solution standards (10 μL) obtained by diluting a stock solution of test compound (1 mg/mL in DMSO) with 50% acetonitrile in water. Diazepam (10 μL of 5 μg/mL in 50% acetonitrile/water) was added to all plasma calibration standards and samples as an internal standard (IS). The extraction of the test compound and IS from plasma was conducted using protein precipitation with acetonitrile. Protein precipitation was carried out by the addition of acetonitrile followed by vortexing and centrifugation (10,000 rpm) for 3 minutes to obtain supernatant for analysis using the LC-MS conditions described in Table 7.

[2] = In vivo determination of whole blood-to-plasma ratio; design: species or system male C57BL/6 mice; settings: male, C57BL/6, whole blood and plasma; mouse blood, 15 min and 1 h post-dose; read-out: apparent whole blood-to-plasma ratio (B/P)
Procedure: Blood was collected from mice at 15 min and 1 h post-dose of each compound for the purposes of determining the whole blood-to-plasma (B/P) ratio. […] No adverse reactions or compound-related side effects observed in any mice during the 24 h sampling period after dosing any of the compounds. Plasma samples were also taken from 2 mice that were not administered test compound for use as analytical tool.
Analysis of B/P partitioning samples was conducted similarly and quantified against calibration standards samples prepared using a 1:1 v/v mixture of blank mouse blood and plasma. The matrix matched B/P partitioning samples and standards were processed using protein precipitation with acetonitrile as described above.
In Vivo Determination of Whole Blood-to-Plasma Ration
Blood was collected via cardiac puncture (whilst under gaseous isoflurane anaesthesia) into tubes containing heparin and stabilisation cocktail. The haematocrit was determined via centrifugation (13000×g for 4 min using a Clemets® Microhematocrit centrifuge and Safecap® Plain Self-sealing Mylar Wrapped capillary tubes), and values ranged from 38% to 40% for PF670462 and 38% to 44% for ZH3-138. […]
The B/P ratio was obtained by dividing the average measured concentration in blood by the average concentration measured in plasma following centrifugation of whole blood.

apparent blood clearance [1]: low | apparent blood volume of distribution [1]: moderate | time post-dose for which plasma concentration was measurable (above LLQ) ([1]; 24 h sampling period): ≥ 24 h | Plasma Concentration, Individual ([1]; IV 2.69 mg/kg, 0.017 h, 2.69 mg/kg): 11.4 µM and 9.81 µM | Plasma Concentration, Individual ([1]; IV 2.69 mg/kg, 0.033 h, 2.69 mg/kg): 6.30 µM and 9.37 µM | Plasma Concentration, Individual ([1]; IV 2.69 mg/kg, 0.083 h (actual sampling time was 0.10 h), 2.69 mg/kg): 5.94 µM and 5.95 µM | Plasma Concentration, Individual ([1]; IV 2.69 mg/kg, 0.25 h, 2.69 mg/kg): 4.68 µM and 4.21 µM | Plasma Concentration, Individual ([1]; IV 2.69 mg/kg, 0.5 h, 2.69 mg/kg): 4.12 µM and 4.28 µM | Plasma Concentration, Individual ([1]; IV 2.69 mg/kg, 1.0 h, 2.69 mg/kg): 2.73 µM and 3.70 µM | Plasma Concentration, Individual ([1]; IV 2.69 mg/kg, 2.0 h, 2.69 mg/kg): 5.24 µM and 4.00 µM | Plasma Concentration, Individual ([1]; IV 2.69 mg/kg, 4.0 h, 2.69 mg/kg): 3.53 µM and 3.63 µM | Plasma Concentration, Individual ([1]; IV 2.69 mg/kg, 7.5 h, 2.69 mg/kg): 1.77 µM and 1.54 µM | Plasma Concentration, Individual ([1]; IV 2.69 mg/kg, 24 h, 2.69 mg/kg): 0.0287 µM and 0.0211 µM | Plasma Concentration, Individual ([1]; oral 8.96 mg/kg, 0.25 h, 8.96 mg/kg): 14.7 µM and 8.96 µM | Plasma Concentration, Individual ([1]; oral 8.96 mg/kg, 0.50 h, 8.96 mg/kg): 11.3 µM and 22.5 µM | Plasma Concentration, Individual ([1]; oral 8.96 mg/kg, 1.0 h, 8.96 mg/kg): 16.2 µM and 14.4 µM | Plasma Concentration, Individual ([1]; oral 8.96 mg/kg, 2.0 h, 8.96 mg/kg): 17.4 µM and 17.7 µM | Plasma Concentration, Individual ([1]; oral 8.96 mg/kg, 4.0 h, 8.96 mg/kg): 10.2 µM and 15.1 µM | Plasma Concentration, Individual ([1]; oral 8.96 mg/kg, 7.5 h, 8.96 mg/kg): 5.97 µM and 8.71 µM | Plasma Concentration, Individual ([1]; oral 8.96 mg/kg, 24 h, 8.96 mg/kg): 0.0400 µM and 0.0758 µM | time of apparent secondary peak in concentration-time profile ([1]; post-dose): 2 h | concentration at 0.017 h ([1]; plasma, iv, 2.69 mg/kg, IV 2.69 mg/kg, 0.017 h, read-out: Plasma Concentration, Individual): 11.1 µM | concentration at 0.017 h ([1]; plasma, iv, 2.69 mg/kg, IV 2.69 mg/kg, 0.017 h, read-out: Plasma Concentration, Mean): 10.8 µM | concentration at 0.033 h ([1]; plasma, iv, 2.69 mg/kg, IV 2.69 mg/kg, 0.033 h, read-out: Plasma Concentration, Individual): 7.86 µM | concentration at 0.033 h ([1]; plasma, iv, 2.69 mg/kg, IV 2.69 mg/kg, 0.033 h, read-out: Plasma Concentration, Mean): 7.84 µM | concentration at 0.083 h ([1]; plasma, iv, 2.69 mg/kg, IV 2.69 mg/kg, 0.083 h (actual sampling time was 0.10 h), read-out: Plasma Concentration, Individual): 5.29 µM | concentration at 0.083 h ([1]; plasma, iv, 2.69 mg/kg, IV 2.69 mg/kg, 0.083 h (actual sampling time was 0.10 h), read-out: Plasma Concentration, Mean): 5.73 µM | concentration at 0.25 h ([1]; plasma, iv, 2.69 mg/kg, IV 2.69 mg/kg, 0.25 h, read-out: Plasma Concentration, Individual): 5.04 µM | concentration at 0.25 h ([1]; plasma, iv, 2.69 mg/kg, IV 2.69 mg/kg, 0.25 h, read-out: Plasma Concentration, Mean): 4.65 µM | concentration at 0.5 h ([1]; plasma, iv, 2.69 mg/kg, IV 2.69 mg/kg, 0.5 h, read-out: Plasma Concentration, Individual): 4.01 µM | concentration at 0.5 h ([1]; plasma, iv, 2.69 mg/kg, IV 2.69 mg/kg, 0.5 h, read-out: Plasma Concentration, Mean): 4.14 µM | concentration at 1 h ([1]; plasma, iv, 2.69 mg/kg, IV 2.69 mg/kg, 1.0 h, read-out: Plasma Concentration, Individual): 2.93 µM | concentration at 1 h ([1]; plasma, iv, 2.69 mg/kg, IV 2.69 mg/kg, 1.0 h, read-out: Plasma Concentration, Mean): 3.12 µM | concentration at 2 h ([1]; plasma, iv, 2.69 mg/kg, IV 2.69 mg/kg, 2.0 h, read-out: Plasma Concentration, Individual): 4.42 µM | concentration at 2 h ([1]; plasma, iv, 2.69 mg/kg, IV 2.69 mg/kg, 2.0 h, read-out: Plasma Concentration, Mean): 4.55 µM | concentration at 4 h ([1]; plasma, iv, 2.69 mg/kg, IV 2.69 mg/kg, 4.0 h, read-out: Plasma Concentration, Individual): 3.74 µM | concentration at 4 h ([1]; plasma, iv, 2.69 mg/kg, IV 2.69 mg/kg, 4.0 h, read-out: Plasma Concentration, Mean): 3.63 µM | concentration at 7.5 h ([1]; plasma, iv, 2.69 mg/kg, IV 2.69 mg/kg, 7.5 h, read-out: Plasma Concentration, Individual): 1.84 µM | concentration at 7.5 h ([1]; plasma, iv, 2.69 mg/kg, IV 2.69 mg/kg, 7.5 h, read-out: Plasma Concentration, Mean): 1.72 µM | concentration at 24 h ([1]; plasma, iv, 2.69 mg/kg, IV 2.69 mg/kg, 24 h, read-out: Plasma Concentration, Individual): 23.7 nM | concentration at 24 h ([1]; plasma, iv, 2.69 mg/kg, IV 2.69 mg/kg, 24 h, read-out: Plasma Concentration, Mean): 24.5 nM | concentration at 0.25 h ([1]; plasma, po, 8.96 mg/kg, oral 8.96 mg/kg, 0.25 h, read-out: Plasma Concentration, Individual): 12.1 µM | concentration at 0.25 h ([1]; plasma, po, 8.96 mg/kg, oral 8.96 mg/kg, 0.25 h, read-out: Plasma Concentration, Mean): 11.9 µM | concentration at 0.5 h ([1]; plasma, po, 8.96 mg/kg, oral 8.96 mg/kg, 0.50 h, read-out: Plasma Concentration, Individual): 13.7 µM | concentration at 0.5 h ([1]; plasma, po, 8.96 mg/kg, oral 8.96 mg/kg, 0.50 h, read-out: Plasma Concentration, Mean): 15.8 µM | concentration at 1 h ([1]; plasma, po, 8.96 mg/kg, oral 8.96 mg/kg, 1.0 h, read-out: Plasma Concentration, Individual): 13.9 µM | concentration at 1 h ([1]; plasma, po, 8.96 mg/kg, oral 8.96 mg/kg, 1.0 h, read-out: Plasma Concentration, Mean): 14.8 µM | concentration at 2 h ([1]; plasma, po, 8.96 mg/kg, oral 8.96 mg/kg, 2.0 h, read-out: Plasma Concentration, Individual): 13.8 µM | concentration at 2 h ([1]; plasma, po, 8.96 mg/kg, oral 8.96 mg/kg, 2.0 h, read-out: Plasma Concentration, Mean): 16.3 µM | concentration at 4 h ([1]; plasma, po, 8.96 mg/kg, oral 8.96 mg/kg, 4.0 h, read-out: Plasma Concentration, Individual): 11 µM | concentration at 4 h ([1]; plasma, po, 8.96 mg/kg, oral 8.96 mg/kg, 4.0 h, read-out: Plasma Concentration, Mean): 12.1 µM | concentration at 7.5 h ([1]; plasma, po, 8.96 mg/kg, oral 8.96 mg/kg, 7.5 h, read-out: Plasma Concentration, Individual): 6.59 µM | concentration at 7.5 h ([1]; plasma, po, 8.96 mg/kg, oral 8.96 mg/kg, 7.5 h, read-out: Plasma Concentration, Mean): 7.09 µM | concentration at 24 h ([1]; plasma, po, 8.96 mg/kg, oral 8.96 mg/kg, 24 h, read-out: Plasma Concentration, Individual): 51.3 nM | concentration at 24 h ([1]; plasma, po, 8.96 mg/kg, oral 8.96 mg/kg, 24 h, read-out: Plasma Concentration, Mean): 55.7 nM | half-life ([1]; mouse, plasma, read-out: apparent half-life (converted)): ~180 min | blood plasma ratio [2]: 0.91
SMILES: Nc1nccc(-c2c(-c3ccc(F)cc3)ncn2C2CCC(F)(F)CC2)n1 [ZH3-138, 4-(1-(4,4-Difluorocyclohexyl)-4-(4-fluorophenyl)-1H-imidazol-5-yl)pyrimidin-2-amine]

Reference: patent US20220281846A1, “COMPOUNDS AND COMPOSITIONS FOR THE TREATMENT OF RESPIRATORY DISEASES” (THE UNIVERSITY OF MELBOURNE, priority 2018, published 2022)
